Results on ten molecules are retold here after ChEMBL document CHEMBL1136087, “Synthesis of radiolabeled biphenylsulfonamide matrix metalloproteinase inhibitors as new potential PET cancer imaging agents” (Bioorg Med Chem Lett, 2003).

The target of this test is Collagenase 3 (Homo sapiens) (UniProt P45452). The test can be described thus: Inhibition of human matrix metalloprotease-13 at 20 nM.
With `CC(C)[C@H](NS(=O)(=O)c1ccc(-c2ccc([N+](=O)[O-])cc2)cc1)C(=O)O`, the Inhibition effect was determined as 0.897.
As to `COC(=O)[C@@H](NS(=O)(=O)c1ccc(-c2ccc(F)cc2)cc1)C(C)C`, the Inhibition effect was determined as 0.91.
The figure for `CC(C)[C@H](NS(=O)(=O)c1ccc(-c2ccc(F)cc2)cc1)C(=O)O` is 0.918.
The figure for `COC(=O)[C@@H](NS(=O)(=O)c1ccc(-c2ccc([N+](=O)[O-])cc2)cc1)C(C)C` is 0.883; for `COC(=O)[C@@H](NS(=O)(=O)c1ccc(-c2ccccc2F)cc1)C(C)C` it is 0.922.
The figure for `COC(=O)[C@@H](NS(=O)(=O)c1ccc(-c2ccc(OC)cc2)cc1)C(C)C` is 0.935; for `COC(=O)[C@@H](NS(=O)(=O)c1ccc(-c2cccc(OC)c2)cc1)C(C)C` it is 0.939; for `COc1ccc(-c2ccc(S(=O)(=O)N[C@H](C(=O)O)C(C)C)cc2)cc1` it is 0.938.
On to `COC(=O)[C@@H](NS(=O)(=O)c1ccc(-c2ccccc2OC)cc1)C(C)C`, for which the Inhibition effect came to 0.942.
The figure for `COC(=O)[C@@H](NS(=O)(=O)c1ccc(-c2cccc(F)c2)cc1)C(C)C` is 0.919.
